{"source": "PubChem BioAssay AID1985", "about": "(Southern Research Specialized Biocontainment Screening …, 2009)"}
{"tested_on": "S. Typhi PhoP-promoter GFP reporter, fluorescence, 4 h", "test": "PhoP regulon inhibitor project modified counter assay, GFP fluorescence readout, dose response (AID 1985)", "units": {"IC50": "µM"}}
{"molecule": "Cc1cc(C)nc(SCC(=O)Nc2sc3c(c2C#N)CCC(C)C3)n1", "note": "(centres undefined)", "IC50": 41.8}
{"molecule": "C(=N/Nc1nccs1)/c1cccnc1", "IC50": 61.5}
{"molecule": "CC(=O)Nc1ccc(S(=O)(=O)NNc2cccc(C)c2)cc1", "IC50": 58.9}
{"molecule": "Nc1nc(=S)c2[nH]cnc2[nH]1", "IC50": 6.3}
{"molecule": "CCCCCCCNC(=O)C1(CC2CC(c3cccc(Br)c3)=NO2)CCNCC1", "note": "(centres undefined)", "IC50": 46}
{"molecule": "CCn1cc(C(=O)O)c(=O)c2cc3c(cc21)OCO3", "IC50": 52.1}
{"molecule": "O=C(CCC(=O)Nc1ccc(Cl)cc1Cl)N/N=C/c1ccc([N+](=O)[O-])o1", "IC50": 33.9}
{"molecule": "N=C(N)c1ccc(/C=C/c2ccc(C(=N)N)cc2O)cc1", "IC50": 16.2}
{"molecule": "O=C(N/N=C/c1cc(Cl)ccc1O)c1ccncc1", "IC50": 22}
{"molecule": "O=C(N/N=C/c1ccccn1)c1cccs1", "IC50": 42.8}
{"molecule": "O=C(CSc1ccccn1)N/N=C/c1c[nH]c2ccccc12", "IC50": 133}
{"molecule": "O=C(C[n+]1ccc(-c2ccccc2)cc1)Nc1ccc([N+](=O)[O-])cc1", "IC50": 27.3}
{"molecule": "CN(C)c1ccc(O)c2c1CC1CC3[C@@H](N(C)C)C(=O)C(C(N)=O)=C(O)[C@]3(O)C(=O)C1=C2O", "note": "(some centres undefined)", "IC50": 5.1}
{"molecule": "Clc1ccc(C(c2ccccc2)N2CCNCC2)cc1", "note": "(centres undefined)", "IC50": 144}
{"molecule": "CNCCCN1c2ccccc2CCc2ccccc21", "IC50": 143}
{"molecule": "CN(C)[C@@H]1C(=O)C(C(N)=O)=C(O)[C@@]2(O)C(=O)C3=C(O)c4c(O)cccc4[C@@](C)(O)C3[C@H](O)C12", "note": "(some centres undefined)", "IC50": 2.99}
{"molecule": "COc1cc([N+](=O)[O-])cc(/C=N/NC(=O)CSc2ccccn2)c1O", "IC50": 77.7}
{"molecule": "Nc1ncn([C@@H]2O[C@H](CO)[C@@H](O)[C@H]2O)c(=O)n1", "IC50": 11.2}
{"molecule": "C#CCOCCOCCOCCNc1nc(N2CCN(C(=O)CCCCCCCCCCNC(=O)[C@H](CO)n3cc(CCCCCN)nn3)CC2)nc(N2CCN(C(=O)CCCCCCCCCCNC(=O)[C@H](CCCN=C(N)N)n3cc(C[C@@H](C)CC)nn3)CC2)n1", "IC50": 142}
{"molecule": "Cc1ccc2nc(N(CCCN(C)C)C(=O)c3sc4ccccc4c3Cl)sc2c1", "IC50": 54.7}
{"molecule": "COc1cc(Br)cc(/C=N/c2ncn[nH]2)c1O", "IC50": 81.3}
{"molecule": "OC(CNCC1CCCO1)Cn1c2ccc(Cl)cc2c2cc(Cl)ccc21", "note": "(centres undefined)", "IC50": 38.8}
{"molecule": "O=CN/N=C/c1c(O)ccc2ccccc12", "IC50": 49}
{"molecule": "FC(F)Oc1ccc(NC(=S)NCc2nc3ccccc3[nH]2)cc1", "IC50": 33.7}
{"molecule": "CCCCCCCCNC(C)C(O)c1ccc(SC(C)C)cc1", "note": "(centres undefined)", "IC50": 41.8}
{"molecule": "O=C(NC1CCCC1)c1ccc(Br)s1", "IC50": 34}
{"molecule": "Clc1ccc(C(c2ccc(Cl)cc2)n2cc[n+](CC(OCc3ccc(Cl)cc3Cl)c3ccc(Cl)cc3Cl)c2)cc1", "note": "(centres undefined)", "IC50": 15}
{"molecule": "Cc1cc(NC(=O)c2ccc3[nH]c(C)c(C)c3c2)ccn1", "IC50": 144}
{"molecule": "OC(CNCCc1ccc(C(F)(F)F)cc1)COC(c1ccccc1)c1ccccc1", "note": "(centres undefined)", "IC50": 82.9}
{"molecule": "CCOc1cccc(CNCCc2c(C)[nH]c3ccc(OC(F)(F)F)cc23)c1O", "IC50": 76.2}
{"molecule": "Cc1[nH]cnc1C(=O)N/N=C/c1ccc([N+](=O)[O-])s1", "IC50": 20.6}
{"molecule": "Oc1[nH]c2ccc(Br)cc2c1N=NC(=S)N1CCOCC1", "IC50": 47.3}
{"molecule": "O=C(/C=C/c1ccc(F)cc1)NC(=S)NNC(=O)c1cnccn1", "IC50": 20.4}
{"molecule": "CSc1ccc2c(c1)C(N1CCN(C)CC1)Cc1ccccc1S2", "note": "(centres undefined)", "IC50": 55.6}
{"molecule": "CCCCOc1ccc(OCCNC(=O)c2ccco2)cc1", "IC50": 65.4}
{"molecule": "CCn1cc(C(=O)NCCN(C)C)c(=O)c2cc(F)c(N3CCN(C)CC3)cc21", "IC50": 34}
{"molecule": "Cc1cccc(Nc2nc(NCc3ccco3)c3ccccc3n2)c1", "IC50": 11}
{"molecule": "OC(CNCc1ccco1)Cn1c2ccc(Br)cc2c2cc(Br)ccc21", "note": "(centres undefined)", "IC50": 28}
{"molecule": "Cc1ccc(Nc2nc(NCCO)c3ccccc3n2)cc1C", "IC50": 80.8}
{"molecule": "O=C(NNC(=S)NC(=O)c1ccco1)c1ccc(F)cc1", "IC50": 96.8}
{"molecule": "O=Nc1ccc(O)c2ncccc12", "IC50": 24.6}
{"molecule": "CNC(=S)N1CCN(c2c(F)cc3c(=O)c(C(=O)O)cn(C4CC4)c3c2OC)CC1C", "note": "(centres undefined)", "IC50": 8.49}
{"molecule": "O=c1oc2ccccc2nc1/C=C(\\O)c1ccccc1", "IC50": 23.9}
{"molecule": "Nc1c(Cl)ncnc1N/N=C/c1ccccn1", "IC50": 33.4}
{"molecule": "Cc1cccn2c(=O)c(C=O)c(Cl)nc12", "IC50": 140}
{"molecule": "NC(=O)SCC(=O)Nc1ccc(Cl)c(Cl)c1", "IC50": 52.2}
{"molecule": "Cc1ccc(C(=O)NCCN2C3=NC[C@@H](Cc4ccccc4)N3C[C@H]2Cc2ccc(O)cc2)cc1Br", "IC50": 121}
{"molecule": "CC1(C)N=C(N)NC(Nc2ccc(Br)cc2)=N1", "IC50": 76.4}
{"molecule": "C[C@H]1O[C@@H](n2cc(F)c(=O)[nH]c2=O)[C@H](O)[C@@H]1O", "IC50": 13.2}
{"molecule": "O=C(N/N=C/c1ccc([N+](=O)[O-])o1)C(O)c1ccccc1", "note": "(centres undefined)", "IC50": 13.1}
{"molecule": "COc1ccc(CNCCc2cccc(F)c2)c2ccccc12", "IC50": 81.7}
{"molecule": "COc1ccc(/C=N/Nc2cc(C)nc3ccc(Br)cc23)cc1", "IC50": 46.2}
{"molecule": "Oc1cc(Cl)ccc1Oc1ccc(Cl)cc1Cl", "IC50": 0.369}
{"molecule": "O=C(Oc1c(Br)cc([N+](=O)[O-])cc1Br)c1cccnc1", "IC50": 46.5}
{"molecule": "O=C(Nc1ccc2nc(-c3ccc(Br)o3)[nH]c2c1)c1ccco1", "IC50": 130}
{"molecule": "CCCCCCCCCCCCCCCC[N+](C)(C)CCN(Cc1ccc(OC)cc1)c1ncccn1", "IC50": 23.9}
{"molecule": "COc1ccc(/C=C/c2cc[n+](C(=O)Cc3ccccc3)cc2)cc1", "IC50": 107}
{"molecule": "C(=N\\Nc1ccccn1)/c1cccnc1", "IC50": 37.5}
{"molecule": "O/N=C/c1ccc(OCc2ccccc2)c(Cl)c1", "IC50": 130}
{"molecule": "O=C(Nc1cccc([N+](=O)[O-])c1)Nc1cccs1", "IC50": 45.6}
{"molecule": "O=C(/C=C/c1ccccc1)c1cc(Br)ccc(=O)c1O", "IC50": 51.1}
{"molecule": "CCn1cc(C(=O)O)c(=O)c2cc(F)c(N3CCN(C(=S)NC(=O)c4ccccc4)CC3)cc21", "IC50": 24}
{"molecule": "O=c1[nH]c(=S)ccn1C1OC(CO)C(O)C1O", "note": "(centres undefined)", "IC50": 1.74}
{"molecule": "CSc1nc2cc(Oc3cccc(Cl)c3Cl)c(Cl)cc2[nH]1", "IC50": 57.8}
{"molecule": "O=C(c1ccc([N+](=O)[O-])o1)N1CCOCC1", "IC50": 24.4}
{"molecule": "S=C(Nc1ccc(Cl)c(Cl)c1)NC1CCN(Cc2ccccc2)CC1", "IC50": 38}
{"molecule": "COCCCNC(=S)NNC(=O)c1ccccn1", "IC50": 25.7}
{"molecule": "Cc1cc(=O)[nH]c(-n2nc(C)cc2C)n1", "IC50": 67.5}
{"molecule": "O=C(N/N=C/c1cc(Br)ccc1O)c1ccccc1Cl", "IC50": 82.8}
{"molecule": "CN(C)CC/C=C1\\c2ccc(F)cc2Sc2cc(F)c(Cl)cc21", "IC50": 36.7}
{"molecule": "N=c1n(CCN2CCCCC2)c2ccccc2n1CC(O)c1ccc(Cl)c(Cl)c1", "note": "(centres undefined)", "IC50": 64.1}
{"molecule": "Clc1cccc(CN2CCc3c([nH]c4ccccc34)C2)c1Cl", "IC50": 104}
{"molecule": "C=CC1=C(C(=O)O)N2C(=O)[C@@H](NC(=O)/C(=N/OCC(=O)O)c3csc(N)n3)[C@H]2SC1", "IC50": 21}
{"molecule": "Cc1cc(Cl)c(OCCCNCc2ccccc2)c(Br)c1", "IC50": 81.7}
{"molecule": "CCN1CCN(C2=C(NS(=O)(=O)c3ccc(Br)cc3)C(=O)c3ccccc3C2=O)CC1", "IC50": 47.4}
{"molecule": "COc1ccc(Nc2ccnc3ccccc23)cc1", "IC50": 85.8}
{"molecule": "O=C(CCN1CCN(c2ccccc2)CC1)c1ccc(Br)cc1", "IC50": 98.6}
{"molecule": "COc1ccc(NC(=O)c2[nH]ncc2[N+](=O)[O-])cc1", "IC50": 40.3}
{"molecule": "NCCCC[C@H]1CN=C(N)N1CCC12CC3CC(CC(C3)C1)C2", "IC50": 131}
{"molecule": "CCOC(=O)N/N=C(/C)c1ccc([N+](=O)[O-])o1", "IC50": 45.8}
{"molecule": "c1ccc2c(c1)CSc1sccc1C2=C1CCNCC1", "IC50": 106}
{"molecule": "Oc1c(Cl)cc(CN2CCCCC2)c2cccnc12", "IC50": 15}
{"molecule": "CC(C)(c1ccccc1)c1ccc(OCCCNCCO)cc1", "IC50": 93.5}
{"molecule": "CCc1nccc2c1[nH]c1ccccc12", "IC50": 123}
